From ChEMBL document CHEMBL4396923, “Applications of amide isosteres in medicinal chemistry” (Bioorg Med Chem Lett, 2019)
Each block holds one molecule with its values, some of them ahead of it. Residues, ends and D or L forms follow the SMILES beside them.

Key:
[1] = target: angiotensin-converting enzyme (Homo sapiens, UniProt P12821); test: Drug metabolism assessed as angiotensin converting enzyme (unknown origin)-mediated Gly3-Phe4 cleavage by measuring half life; type: ADME
[2] = Half life in human serum; type: ADME, cell-free
[3] = target: Delta-type opioid receptor (Homo sapiens, UniProt P41143)
Chain of Delta-type opioid receptor (P41143 whole entry): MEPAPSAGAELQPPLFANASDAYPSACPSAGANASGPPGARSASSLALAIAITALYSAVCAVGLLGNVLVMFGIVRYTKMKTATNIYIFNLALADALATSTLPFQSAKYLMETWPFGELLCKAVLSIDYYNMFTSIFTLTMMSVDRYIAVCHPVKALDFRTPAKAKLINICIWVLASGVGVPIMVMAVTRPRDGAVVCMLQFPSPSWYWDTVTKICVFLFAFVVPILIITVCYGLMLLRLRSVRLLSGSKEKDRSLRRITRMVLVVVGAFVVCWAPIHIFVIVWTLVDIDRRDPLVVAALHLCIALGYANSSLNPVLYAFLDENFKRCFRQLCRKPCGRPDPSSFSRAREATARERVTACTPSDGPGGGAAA
Description: Agonist activity at delta opioid receptor (unknown origin) expressed in CHO cells

[4] = Stability in rat plasma assessed as parent compound remaining at 4 hrs; type: ADME, cell-free; conditions: read-out: Stability
[5] = Stability in human plasma assessed as parent compound remaining at 4 hrs; type: ADME, cell-free; conditions: read-out: Stability
[6] = target: Kappa-type opioid receptor (Homo sapiens, UniProt P41145); test: Agonist activity at kappa opioid receptor (unknown origin) expressed in CHO cells; type: cell-based
Chain of Kappa-type opioid receptor (P41145 whole entry): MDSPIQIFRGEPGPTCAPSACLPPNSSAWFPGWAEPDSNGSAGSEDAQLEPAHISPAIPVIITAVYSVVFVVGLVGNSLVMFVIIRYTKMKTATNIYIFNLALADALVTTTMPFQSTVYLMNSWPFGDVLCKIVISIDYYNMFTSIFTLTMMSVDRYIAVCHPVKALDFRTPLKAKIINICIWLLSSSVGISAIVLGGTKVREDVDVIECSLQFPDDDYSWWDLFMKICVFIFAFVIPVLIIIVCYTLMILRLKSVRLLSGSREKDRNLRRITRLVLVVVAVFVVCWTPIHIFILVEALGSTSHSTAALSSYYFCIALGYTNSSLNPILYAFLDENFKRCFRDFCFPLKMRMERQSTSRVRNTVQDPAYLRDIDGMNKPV

[7] = target: Mu-type opioid receptor (Homo sapiens, UniProt P35372); test: Agonist activity at mu opioid receptor (unknown origin) expressed in CHO cells; type: cell-based
Chain of Mu-type opioid receptor (P35372 whole entry): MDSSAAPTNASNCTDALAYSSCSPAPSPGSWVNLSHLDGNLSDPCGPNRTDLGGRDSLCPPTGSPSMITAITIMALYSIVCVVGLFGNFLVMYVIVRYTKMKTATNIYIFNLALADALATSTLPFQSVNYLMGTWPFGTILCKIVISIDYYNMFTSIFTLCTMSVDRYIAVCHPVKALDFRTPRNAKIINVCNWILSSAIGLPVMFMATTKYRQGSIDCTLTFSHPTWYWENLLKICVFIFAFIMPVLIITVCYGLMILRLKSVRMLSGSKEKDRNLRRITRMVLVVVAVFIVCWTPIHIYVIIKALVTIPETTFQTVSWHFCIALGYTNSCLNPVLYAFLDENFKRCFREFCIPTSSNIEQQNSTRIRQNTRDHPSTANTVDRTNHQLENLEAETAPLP

[8] = test system: Hamster; test: Protection against HLE-induced acute lung damage in hamster; type: functional; conditions: Cricetinae
[9] = target: D(2) dopamine receptor (Homo sapiens) (UniProt P14416); test: Agonist activity at human D2 receptor expressed in NIH/3T3 cells co-expressing beta-galactosidase assessed as increase in beta-galactosidase activity at 10 uM incubated for 5 days by spectrophotometry relative to control; type: cell-based
Chain of D(2) dopamine receptor (Homo sapiens) (P14416 whole entry): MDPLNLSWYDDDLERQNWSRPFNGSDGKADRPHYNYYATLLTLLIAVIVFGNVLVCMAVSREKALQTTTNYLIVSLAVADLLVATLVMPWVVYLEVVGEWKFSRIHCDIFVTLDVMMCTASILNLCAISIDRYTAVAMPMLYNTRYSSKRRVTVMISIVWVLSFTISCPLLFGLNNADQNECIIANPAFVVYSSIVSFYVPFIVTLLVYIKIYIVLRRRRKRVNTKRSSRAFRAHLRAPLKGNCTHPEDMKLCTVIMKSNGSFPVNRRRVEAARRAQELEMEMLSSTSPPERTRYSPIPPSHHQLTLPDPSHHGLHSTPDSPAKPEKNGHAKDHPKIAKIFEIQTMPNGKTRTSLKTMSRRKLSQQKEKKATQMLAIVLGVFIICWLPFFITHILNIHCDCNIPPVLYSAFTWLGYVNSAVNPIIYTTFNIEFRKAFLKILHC

[10] = target: Beta-secretase 1 (Homo sapiens, UniProt P56817); test: Inhibition of BACE-1 (unknown origin)
Chain of Beta-secretase 1 (P56817 whole entry): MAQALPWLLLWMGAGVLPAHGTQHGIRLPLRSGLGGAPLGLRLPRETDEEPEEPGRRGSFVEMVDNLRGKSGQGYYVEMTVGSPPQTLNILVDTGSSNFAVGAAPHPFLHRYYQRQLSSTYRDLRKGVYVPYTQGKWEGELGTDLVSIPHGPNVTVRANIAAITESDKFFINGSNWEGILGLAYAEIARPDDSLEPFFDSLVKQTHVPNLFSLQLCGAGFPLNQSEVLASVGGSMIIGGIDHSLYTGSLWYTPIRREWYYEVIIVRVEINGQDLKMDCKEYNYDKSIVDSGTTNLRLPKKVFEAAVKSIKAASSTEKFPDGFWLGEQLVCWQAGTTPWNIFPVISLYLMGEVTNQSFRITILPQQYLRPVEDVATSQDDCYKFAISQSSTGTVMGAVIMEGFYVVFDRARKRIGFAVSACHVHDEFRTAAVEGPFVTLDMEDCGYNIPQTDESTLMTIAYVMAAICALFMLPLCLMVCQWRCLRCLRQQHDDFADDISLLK

Chain of angiotensin-converting enzyme (P12821 whole entry): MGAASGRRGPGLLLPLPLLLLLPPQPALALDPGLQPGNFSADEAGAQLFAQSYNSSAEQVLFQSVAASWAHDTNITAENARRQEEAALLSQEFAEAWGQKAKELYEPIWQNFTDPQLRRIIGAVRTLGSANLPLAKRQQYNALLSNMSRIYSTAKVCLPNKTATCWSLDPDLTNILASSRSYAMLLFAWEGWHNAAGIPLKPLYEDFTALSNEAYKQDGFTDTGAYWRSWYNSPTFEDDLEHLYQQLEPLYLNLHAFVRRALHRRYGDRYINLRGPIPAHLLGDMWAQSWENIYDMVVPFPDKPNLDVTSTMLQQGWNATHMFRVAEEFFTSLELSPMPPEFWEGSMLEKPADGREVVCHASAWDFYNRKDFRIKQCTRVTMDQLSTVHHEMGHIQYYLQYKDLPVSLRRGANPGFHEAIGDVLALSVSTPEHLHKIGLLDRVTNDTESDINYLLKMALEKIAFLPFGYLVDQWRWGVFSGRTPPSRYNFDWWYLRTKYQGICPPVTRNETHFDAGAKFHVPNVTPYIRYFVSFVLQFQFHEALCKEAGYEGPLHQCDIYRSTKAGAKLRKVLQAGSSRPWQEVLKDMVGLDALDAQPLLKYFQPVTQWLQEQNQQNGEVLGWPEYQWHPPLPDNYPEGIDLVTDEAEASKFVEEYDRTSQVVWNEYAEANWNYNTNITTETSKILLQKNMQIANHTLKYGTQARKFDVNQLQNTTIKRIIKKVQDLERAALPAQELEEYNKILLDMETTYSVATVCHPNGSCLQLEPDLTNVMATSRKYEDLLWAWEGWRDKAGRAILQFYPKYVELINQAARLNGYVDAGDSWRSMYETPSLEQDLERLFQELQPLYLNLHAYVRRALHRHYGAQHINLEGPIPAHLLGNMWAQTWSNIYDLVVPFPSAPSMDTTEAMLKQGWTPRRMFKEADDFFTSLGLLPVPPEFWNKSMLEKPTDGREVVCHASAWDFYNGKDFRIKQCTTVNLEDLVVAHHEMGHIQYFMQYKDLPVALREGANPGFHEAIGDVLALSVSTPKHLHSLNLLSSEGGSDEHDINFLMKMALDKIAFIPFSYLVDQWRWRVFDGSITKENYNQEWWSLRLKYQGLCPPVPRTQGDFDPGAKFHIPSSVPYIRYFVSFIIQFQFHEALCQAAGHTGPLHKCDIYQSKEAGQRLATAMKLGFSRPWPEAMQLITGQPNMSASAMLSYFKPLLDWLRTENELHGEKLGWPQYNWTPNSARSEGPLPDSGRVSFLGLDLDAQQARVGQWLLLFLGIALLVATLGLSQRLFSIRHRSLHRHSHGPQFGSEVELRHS

SMILES: CC(C)C[C@H](NC(=O)[C@H](Cc1ccccc1)NC(=O)CNC(=O)CNC(=O)[C@@H](N)Cc1ccc(O)cc1)C(=O)O [ENKEPHALIN]
half-life [1]: 2.17 h

SMILES: CC(C)C[C@H](NC1([C@H](Cc2ccccc2)NC(=O)CNC(=O)CNC(=O)[C@@H](N)Cc2ccc(O)cc2)COC1)C(=O)O.O=C(O)C(F)(F)F
half-life [2]: 0.433 h | Ki [3]: 0.043 µM

SMILES: CC(C)C[C@H](NC(=O)[C@H](Cc1ccccc1)NC(=O)CNC(=O)CNC1([C@@H](N)Cc2ccc(O)cc2)COC1)C(=O)O.O=C(O)C(F)(F)F
half-life [2]: 3.2 h

SMILES: Cc1ccc(C[C@H](N)/C(F)=C/CC(=O)NCC(=O)N[C@@H](Cc2ccccc2)C(=O)N[C@@H](CC(C)C)C(=O)O)cc1
remaining at 4 h [4]: 76% | remaining at 4 h [5]: 68% | EC50 [6]: > 0.01 µM | EC50 [3]: 0.005 µM | EC50 [7]: 0.06 µM

SMILES: CC(C)C[C@H](NC(=O)[C@H](Cc1ccccc1)NC(=O)CNC1(CNC(=O)[C@@H](N)Cc2ccc(O)cc2)COC1)C(=O)O.O=C(O)C(F)(F)F
half-life [2]: 18 h

SMILES: CC(C)C(NC(=O)Cn1c(-c2ccc(F)cc2)ncc(N)c1=O)C(=O)C(F)(F)F (stereo not drawn)
ED50 [8]: 7.5 mg/kg

SMILES: CC(C)C[C@H](NC(=O)[C@H](Cc1ccccc1)NC(=O)CNC(=O)CNC([C@@H](N)Cc1ccc(O)cc1)C(F)(F)F)C(=O)O (mixture of isomers)
EC50 [3]: > 0.01 µM

Activity [9]: 146%
SMILES: CC(C)C[C@H](NC(=O)[C@@H]1CCCN1)C(=O)NCC(N)=O (H-Pro-Leu-Gly-NH2)

SMILES: CC(C)C[C@H](NC(=O)[C@@H](/C=C(\F)CNC(=O)CNC(=O)[C@@H](N)Cc1ccc(O)cc1)Cc1ccccc1)C(=O)O
EC50 [3]: 0.043 µM

IC50 [10]: 0.12 µM
SMILES: COC(=O)[C@@H]1C[C@H](NC(=O)[C@@H](NC(=O)C[C@H](O)[C@H](Cc2cc(F)cc(F)c2)NC(=O)C(O)c2ccccc2-c2ccccc2)C(C)C)C[C@H](C(=O)OC)C1 (stereo partly drawn)

SMILES: CC(C)C[C@H](NC(=O)[C@@H](/C=C/CNC(=O)CNC(=O)[C@@H](N)Cc1ccc(O)cc1)Cc1ccccc1)C(=O)O
EC50 [3]: 0.587 µM

SMILES: CC(C)C[C@H](NC(=O)[C@H](Cc1ccccc1)NC1(CNC(=O)CNC(=O)[C@@H](N)Cc2ccc(O)cc2)COC1)C(=O)O.O=C(O)C(F)(F)F
half-life [2]: 0.25 h | Ki [3]: 0.157 µM
